Test results: US20140121100A1, “COMPOSITIONS AND METHODS FOR ENHANCING PLANT GROWTH” (NOVOZYMES BIOAG A/S, priority 2012, published 2014)
Like-named read-outs stand apart in the source and are kept apart here.

Tests used:
corn seedling growth [1] = conditions: for Plant root dry weight / Plant shoot dry weight / Total plant dry weight / Chlorophyll content: 2 weeks after; for Chlorophyll content: SPAD chlorophyll meter; for Plant height: one wk after (8 days after planting)
Procedure: In a clear plastic bag (25 cm×25 cm), 100 gram seeds were treated with 1 ml of water (as control) and 1 mL of the 100, 200, and 500 mg/L treatment solutions separately and shaken vigorously. One day following treatment, seeds were planted in 6″ plastic pots containing sand:perlite 1:1 mix. There were 10 pots/treatment; each pot being a replicate. Plant height was measured 8 days after planting. Plant leaf greenness and final harvest were made 2 weeks after planting. Plant leaf greenness was measured using a SPAD chlorophyll meter (Spectrum Technology, USA).

corn = conditions: GSH 100 mg/L seed treatment; petriplates, dark, 24° C., 7 days
Procedure: Instead of growing the seeds in a greenhouse, the seeds were grown in […] polystyrene petriplates (Fisherband) on 5⅜″ germination paper circle (Anchor Paper Co., Saint Paul, Mn) moistened with 12 ml distilled water. Four petriplates were prepared per treatment as 4 replicates. Petri plates were then placed in the dark in under-counter cabinets in the lab at 24° C. for 7 days. After 7 days, seedlings were removed from the cabinets, exposed to light, and their main roots severed and measured for various root parameters with WinRhizo root scanner (Regent Instruments Inc., WinRhizo Pro 2007). For all statistical analysis, student t-test was applied using JMPv.9 statistical software.

chickpea = chickpea roots; seed treatment; petriplates, dark, 24° C., 7 days
Procedure: (§1) Seeds of chickpea, cotton, pinto bean and soybean were treated according to the protocols of Example 1. One day after seed treatment, 10 seeds of each crop variety were plated in 150 mm×15 mm polystyrene petriplates (Fisherband) on 5⅜″ germination paper circle (Anchor Paper Co., Saint Paul, Mn) moistened with 12 ml distilled water. Four petriplates were prepared per treatment as 4 replicates. Petri plates were then placed in the dark in under-counter cabinets in the lab at 24° C. for 7 days. After 7 days, seedlings were removed from the cabinets, exposed to light, and their main roots severed and measured for various root parameters with WinRhizo root scanner (Regent Instruments Inc., WinRhizo Pro 2007). For all statistical analysis, student t-test was applied using JMPv.9 statistical software.

soybean = soybean roots; seed treatment; petriplates, dark, 24° C., 7 days
Procedure: as §1

corn seedling growth [2] = assay: Effect of GSH and LCO on corn seedling growth (greenhouse pots, WinRhizo); format: in vivo; conditions: seed treatment (LCO 10^−8M), harvested after 2 weeks
Procedure: LCO stock solution was prepared by dissolving LCO in 50:50 ethanol/water solvent. Seeds were then treated according to the protocols of Example 1. Seeds were planted 1 day after treatment in greenhouse under artificial lighting in 5'' plastic pots containing 1:1 sand/perlite mix. […] Plants were allowed to grow for 2 weeks and then harvested. A non-destructive harvest was made by washing sand/perlite soil mix under running tap water. After cleaning, each plant was placed on a clear plexiglass-tray containing enough water to spread the roots in liquid. The tray was then placed on the WinRhizo root scanner (Regent Instruments Inc., WinRhizo Pro 2007) for measurement.

## N[C@@H](CCC(=O)N[C@@H](CS)C(=O)NCC(=O)O)C(=O)O [GSH, glutathione]
Corn seedling growth [1]; GSH 100 mg/L seed treatment
  Plant root dry weight: 0.244a mg
  Plant shoot dry weight: 0.3111ab mg
  Total plant dry weight: 0.555a mg
  Chlorophyll content: 27.93a
  Plant height: 12.07a cm
Corn seedling growth [1]; GSH 200 mg/L seed treatment
  Plant root dry weight: 0.231ab mg
  Plant shoot dry weight: 0.3116ab mg
  Total plant dry weight: 0.542a mg
  Chlorophyll content: 27.55a
  Plant height: 11.91a cm
Corn seedling growth [1]; GSH 500 mg/L seed treatment
  Plant root dry weight: 0.266b mg
  Plant shoot dry weight: 0.339a mg
  Total plant dry weight: 0.565a mg
  Chlorophyll content: 27.83a
  Plant height: 11.66ab cm
corn
  Length, Total: 21.890a* cm
  Volume, Total: 0.150a* cm^3
chickpea
  Length: 94.671a cm
  Surface area: 23.142a cm^2
soybean
  Length: 146.373a cm
  Surface area: 25.691a cm^2
Corn seedling growth [2]
  Coleoptile Length: 9.814b cm
  Coleoptile Surface area: 1.789b cm^2
  Coleoptile Volume: 0.236b cm^2
  Root Diameter: 0.653a mm
  Root Length: 150.89a cm
  Root Surface area: 30.47a cm^2
  Root Volume: 0.494a cm^2
